Measured values as given in patent US7271165B2, “Rifamycin analogs and uses thereof” (priority 2003, dated 2007).
≈ marks a conversion by molar mass, not a printed value.

Key:
E coli = test: MIC assay, E coli; assay type: cell-based
S. pneumo. = test: MIC assay, S. pneumo.; assay type: cell-based, Streptococcus pneumoniae
S. aureus = test: MIC assay, S. aureus; assay type: cell-based, Staphylococcus aureus
H. flu = assay type: cell-based, H. influenza; settings: H. flu
E. faecalis = test: MIC assay, E. faecalis; assay type: cell-based, Enterococcus faecalis

Row | Molecule | MIC (μg/mL) E coli (E coli) | MIC (μg/mL) S. pneumo. (S. pneumo.) | MIC (μg/mL) S. aureus (S. aureus) | MIC (μg/mL) H. flu (H. flu) | MIC (μg/mL) E. faecalis (E. faecalis)
1 | 3′-hydroxy-5′-(4-ethylcarbamyl-1-piperidinyl)benzoxazinorifamycin [Compound 1] | >8 µg/mL | 0.00025 µg/mL | 0.008 µg/mL | 2 µg/mL | 2 µg/mL
2 | 25-O-deacetyl-5′-[(8aR)octahydropyrrolo[1,2-a]pyrazin-2-yl]benzthiazinorifamycin [Compound 78] | 4 µg/mL | 0.00012 µg/mL | 0.002 µg/mL | 0.12 µg/mL | 0.12 µg/mL
3 | CCOC(=O)N1CCCC2CN(c3cc(O)c4nc5c6c7c8c(C)c(O)c6c(=O)c(c-5oc4c3)NC(=O)C(C)=CC=CC(C)C(O)C(C)C(O)C(C)C(O)C(C)C(OC)C=COC(C)(O8)C7=O)CC21 (mixture of isomers) [Compound 42, 25-O-deacetyl-3′-hydroxy-5′-[1-ethylcarbamyl-(4aR,7aR)-octahydro-6H-pyrrolo [3,4-b]pyridin-6-yl]benzoxazinorifamycin] | 8 µg/mL | 0.00012 µg/mL | 0.008 µg/mL | 0.5 µg/mL | 2 µg/mL
4 | CCOC(=O)N1CCCC2CN(c3cc(O)c4nc5c6c7c8c(C)c(O)c6c(=O)c(c-5oc4c3)NC(=O)C(C)=CC=CC(C)C(O)C(C)C(O)C(C)C(OC(C)=O)C(C)C(OC)C=COC(C)(O8)C7=O)CC21 (single isomer, unassigned) [Compound 40] | >8 µg/mL | 0.008 µg/mL (≈ 0.00802 µM) | 0.06 µg/mL (≈ 0.0602 µM) | 0.5 µg/mL (≈ 0.501 µM) | 1 µg/mL (≈ 1 µM)
5 | COC1C=COC2(C)Oc3c(C)c(O)c4c(=O)c(c5oc6cc(N7CC8C(C7)C8NC(=O)OCC[Si](C)(C)C)cc(O)c6nc-5c4c3C2=O)NC(=O)C(C)=CC=CC(C)C(O)C(C)C(O)C(C)C(OC(C)=O)C1C [Compound 2, 3′-hydroxy-5′-[6-(2-trimethylsilyl)ethylcarbamyl-(1R,5S)-3-azabicyclo[3.1.0]hex-3-yl]benzoxazinorifamycin] | >8 µg/mL | 0.03 µg/mL (≈ 0.0288 µM) | 1 µg/mL (≈ 0.96 µM) | >8 µg/mL | >8 µg/mL
6 | CCOC(=O)NC1CCN(c2cc(O)c3nc4c5c6c7c(C)c(O)c5c(=O)c(c-4oc3c2)NC(=O)/C(C)=C\C=C\[C@H](C)[C@H](O)[C@@H](C)[C@@H](O)[C@@H](C)[C@H](O)[C@H](C)[C@@H](OC)/C=C/O[C@@](C)(O7)C6=O)CC1 [Compound 3, 25-O-deacetyl-3′-hydroxy-5′-(4-ethylcarbamyl-1-piperidinyl)benzoxazinorifamycin] | 4 µg/mL (≈ 4.31 µM) | 0.0005 µg/mL (≈ 0.000538 µM) | 0.03 µg/mL (≈ 0.0323 µM) | 0.25 µg/mL (≈ 0.269 µM) | 0.12 µg/mL (≈ 0.129 µM)
7 | COC1C=COC2(C)Oc3c(C)c(O)c4c(=O)c(c5oc6cc(N7CC8C(N)C8C7)cc(O)c6nc-5c4c3C2=O)NC(=O)C(C)=CC=CC(C)C(O)C(C)C(O)C(C)C(OC(C)=O)C1C [Compound 4, 3′-hydroxy-5′-[6-amino-(1R,5S)-3-azabicyclo[3.1.0]hex-3-yl]benzoxazinorifamycin] | >8 µg/mL | 0.00025 µg/mL (≈ 0.000279 µM) | 0.03 µg/mL (≈ 0.0334 µM) | 0.25 µg/mL (≈ 0.279 µM) | 0.5 µg/mL (≈ 0.557 µM)
8 | CO[C@H]1/C=C/O[C@@]2(C)Oc3c(C)c(O)c4c(=O)c(c5oc6cc(N7C[C@@H]8CCCN[C@@H]8C7)cc(O)c6nc-5c4c3C2=O)NC(=O)/C(C)=C\C=C\[C@H](C)[C@H](O)[C@@H](C)[C@@H](O)[C@@H](C)[C@H](OC(C)=O)[C@@H]1C [Compound 5, 3′-hydroxy-5′-[(4aS,7aS)-octahydro-6H-pyrrolo[3,4-b]pyridin-6-yl]benzoxazinorifamycin] | 8 µg/mL (≈ 8.65 µM) | 0.00025 µg/mL (≈ 0.00027 µM) | 0.015 µg/mL (≈ 0.0162 µM) | 2 µg/mL (≈ 2.16 µM) | 0.5 µg/mL (≈ 0.541 µM)
9 | CO[C@H]1/C=C/O[C@@]2(C)Oc3c(C)c(O)c4c(=O)c(c5oc6cc(N7C[C@@H]8CCCN[C@@H]8C7)cc(O)c6nc-5c4c3C2=O)NC(=O)/C(C)=C\C=C\[C@H](C)[C@H](O)[C@@H](C)[C@@H](O)[C@@H](C)[C@H](O)[C@@H]1C [Compound 7, 25-O-deacetyl-3′-hydroxy-5′-[(4aS,7aS)-octahydro-6H-pyrrolo[3,4-b]pyridin-6-yl]benzoxazinorifamycin] | >8 µg/mL | 0.004 µg/mL (≈ 0.00453 µM) | 0.12 µg/mL (≈ 0.136 µM) | 4 µg/mL (≈ 4.53 µM) | 4 µg/mL (≈ 4.53 µM)
10 | CO[C@H]1/C=C/O[C@@]2(C)Oc3c(C)c(O)c4c(=O)c(c5oc6cc(N7CCC(N8CCOCC8)CC7)cc(O)c6nc-5c4c3C2=O)NC(=O)/C(C)=C\C=C\[C@H](C)[C@H](O)[C@@H](C)[C@@H](O)[C@@H](C)[C@H](OC(C)=O)[C@@H]1C [Compound 9, 3′-hydroxy-5′-(4-morpholinyl-1-piperidinyl)benzoxazinorifamycin] | 8 µg/mL (≈ 8.26 µM) | 0.001 µg/mL (≈ 0.00103 µM) | 0.015 µg/mL (≈ 0.0155 µM) | 2 µg/mL (≈ 2.06 µM) | 2 µg/mL (≈ 2.06 µM)
11 | CO[C@H]1/C=C/O[C@@]2(C)Oc3c(C)c(O)c4c(=O)c(c5oc6cc(N7CC8CCC(C7)N8)cc(O)c6nc-5c4c3C2=O)NC(=O)/C(C)=C\C=C\[C@H](C)[C@H](O)[C@@H](C)[C@@H](O)[C@@H](C)[C@H](OC(C)=O)[C@@H]1C [Compound 10, 3′-hydroxy-5′-(3,8-diazabicyclo[3.2.1]octan-3-yl)benzoxazinorifamycin] | >8 µg/mL | 0.00012 µg/mL (≈ 0.000132 µM) | 0.008 µg/mL (≈ 0.00878 µM) | 2 µg/mL (≈ 2.2 µM) | 1 µg/mL (≈ 1.1 µM)
12 | CO[C@H]1/C=C/O[C@@]2(C)Oc3c(C)c(O)c4c(=O)c(c5oc6cc(N7CCC(N8CCOCC8)CC7)cc(O)c6nc-5c4c3C2=O)NC(=O)/C(C)=C\C=C\[C@H](C)[C@H](O)[C@@H](C)[C@@H](O)[C@@H](C)[C@H](O)[C@@H]1C [Compound 11, 25-O-deacetyl-3′-hydroxy-5′-(4-morpholinyl-1-piperidinyl)benzoxazinorifamycin] | 4 µg/mL (≈ 4.31 µM) | 0.00012 µg/mL (≈ 0.000129 µM) | 0.004 µg/mL (≈ 0.00431 µM) | 1 µg/mL (≈ 1.08 µM) | 0.25 µg/mL (≈ 0.27 µM)
13 | CO[C@H]1/C=C/O[C@@]2(C)Oc3c(C)c(O)c4c(=O)c(c5oc6cc(N7C[C@H]8CCCN[C@H]8C7)cc(O)c6nc-5c4c3C2=O)NC(=O)/C(C)=C\C=C\[C@H](C)[C@H](O)[C@@H](C)[C@@H](O)[C@@H](C)[C@H](OC(C)=O)[C@@H]1C [Compound 12, 3′-hydroxy-5′-[(4aR,7aR)-octahydro-6H-pyrrolo[3,4-b]pyridin-6-yl]benzoxazinorifamycin] | 8 µg/mL (≈ 8.65 µM) | 0.00025 µg/mL (≈ 0.00027 µM) | 0.004 µg/mL (≈ 0.00432 µM) | 0.25 µg/mL (≈ 0.27 µM) | 0.12 µg/mL (≈ 0.13 µM)
14 | CO[C@H]1/C=C/O[C@@]2(C)Oc3c(C)c(O)c4c(=O)c(c5oc6cc(N7CCC(NC(=O)OCC(C)C)CC7)cc(O)c6nc-5c4c3C2=O)NC(=O)/C(C)=C\C=C\[C@H](C)[C@H](O)[C@@H](C)[C@@H](O)[C@@H](C)[C@H](OC(C)=O)[C@@H]1C [Compound 13] | 4 µg/mL (≈ 4 µM) | 0.00012 µg/mL (≈ 0.00012 µM) | 0.008 µg/mL (≈ 0.00801 µM) | 2 µg/mL (≈ 2 µM) | 0.5 µg/mL (≈ 0.5 µM)
15 | CO[C@H]1/C=C/O[C@@]2(C)Oc3c(C)c(O)c4c(=O)c(c5oc6cc(N7C[C@H]8CCCN[C@H]8C7)cc(O)c6nc-5c4c3C2=O)NC(=O)/C(C)=C\C=C\[C@H](C)[C@H](O)[C@@H](C)[C@@H](O)[C@@H](C)[C@H](O)[C@@H]1C [Compound 15, 25-O-deacetyl-3′-hydroxy-5′-[(4aR,7aR)-octahydro-6H-pyrrolo[3,4-b]pyridin-6-yl]benzoxazinorifamycin] | >8 µg/mL | 0.002 µg/mL (≈ 0.00226 µM) | 0.03 µg/mL (≈ 0.034 µM) | 1 µg/mL (≈ 1.13 µM) | 0.25 µg/mL (≈ 0.283 µM)
16 | CO[C@H]1/C=C/O[C@@]2(C)Oc3c(C)c(O)c4c(=O)c(c5oc6cc(N7CC8CCC(C7)N8)cc(O)c6nc-5c4c3C2=O)NC(=O)/C(C)=C\C=C\[C@H](C)[C@H](O)[C@@H](C)[C@@H](O)[C@@H](C)[C@H](O)[C@@H]1C [Compound 16, 25-O-deacetyl-3′-hydroxy-5′-(3,8-diazabicyclo[3.2.1]octan-3-yl)benzoxazinorifamycin] | 4 µg/mL (≈ 4.6 µM) | 0.001 µg/mL (≈ 0.00115 µM) | 0.015 µg/mL (≈ 0.0173 µM) | 0.25 µg/mL (≈ 0.288 µM) | 0.12 µg/mL (≈ 0.138 µM)
17 | CO[C@H]1/C=C/O[C@@]2(C)Oc3c(C)c(O)c4c(=O)c(c5oc6cc(N7CCC(N(C)C)CC7)cc(O)c6nc-5c4c3C2=O)NC(=O)/C(C)=C\C=C\[C@H](C)[C@H](O)[C@@H](C)[C@@H](O)[C@@H](C)[C@H](OC(C)=O)[C@@H]1C [Compound 17, 3′-hydroxy-5′-(4-N,N-dimethylamino-1-piperidinyl)benzoxazinorifamycin] | 8 µg/mL (≈ 8.63 µM) | 0.00012 µg/mL (≈ 0.000129 µM) | 0.008 µg/mL (≈ 0.00863 µM) | 1 µg/mL (≈ 1.08 µM) | 1 µg/mL (≈ 1.08 µM)
18 | COC1C=COC2(C)Oc3c(C)c(O)c4c(=O)c(c5oc6cc(N7CC(C)CC(C)C7)cc(O)c6nc-5c4c3C2=O)NC(=O)C(C)=CC=CC(C)C(O)C(C)C(O)C(C)C(O)C1C (centres unmarked) [Compound 113] |  | 0.002 µg/mL (≈ 0.0023 µM) | 0.008 µg/mL (≈ 0.0092 µM) | 0.12 µg/mL (≈ 0.138 µM) | 1 µg/mL (≈ 1.15 µM)
19 | CCc1cc(C)cc2nc3c4c5c6c(C)c(O)c4c(=O)c(c-3oc12)NC(=O)C(C)=CC=CC(C)C(O)C(C)C(O)C(C)C(O)C(C)C(OC)C=COC(C)(O6)C5=O (centres unmarked) [Compound 130] | >8 µg/mL | 0.25 µg/mL (≈ 0.319 µM) |  |  | 1 µg/mL (≈ 1.27 µM)
